Results reported in patent US7144591B2, “Composition containing citronella java oil and use thereof for repelling insects” (priority 2002, dated 2006).

System: Aedes aegypti (yellow fever mosquitoes)
Test: Repellent activity with respect to mosquitoes, treated forearm in cage (Swiss Tropic Institute method)
Format: in vivo
Details: 2 ml on 250 cm^2 forearm, 400 mosquitoes in cage, hourly 10 min exposure

For `O=C(O)CC(O)(CC(=O)O)C(=O)O` [PC4, citric acid], the “repellent activity with respect to mosquitoes (result in words)” value was “surprisingly bad results”.
